Laboratory results from patent US20210369853A1, “TARGETED PROTEASE DEGRADATION PLATFORM” (EUBULUS BIOTHERAPEUTICS INC., priority 2018, published 2021).
Read-outs that look alike come from different tables or passages of the source.

Legend:
Type in all cases: cell-based
PLK1 = molecular target: T1, PLK1 (Homo sapiens, UniProt P53350); experiment: Western blot, protein degradation (DC50); conditions: 6 h, western blot; read-out: PLK1 DC50 (6 h)
T1 construct: endogenous in cells
Description: (§1) Cells were treated with the compound for a period of time, after that the cells were collected by centrifugation. After washing with PBS, the cells were lysed by adding RIPA buffer; the cell lysate were added to the loading buffer and then appropriate volume were taken and slowly added to the corresponding wells of the gel plate, and run the SDS-PAGE gel (4%-12%). After running the gel, transferred to the PVDF membrane and sealed with 5% skimmed milk powder at room temperature for 1 hour. The membrane was placed in the primary antibody diluted with 5% skimmed milk powder and shaked slowly overnight at 4° C. After incubation with primary antibody, the membrane was washed 3 times using a TBST shaker; added secondary antibody diluted with 5% skimmed milk powder corresponding to the primary antibody, and shaked slowly at room temperature for 1 hour. After incubation with secondary antibody, the membrane was washed 3 times using the TBST shaker again. The PVDF membrane was flatted in the cassette, the strip was evenly infiltrated with ECL developer solution, and placed in ChemDoc XRS+ gel imager for taking pictures. The intensity of protein bands was analyzed quantitatively using ImageJ software.

BRD4 = molecular target: T2, BRD4 (Homo sapiens, UniProt O60885); experiment: Western blot, protein degradation (DC50); conditions: 6 h, western blot; read-out: BRD4 DC50 (6 h)
T2 construct: endogenous in cells
Description: as §1

[1] = test system: Human Monocytic Leukemia MV4-11; experiment: Cell proliferation experiment (Alarm blue, 72 h, EC50)
How it was run: (§2)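 Single-cell suspensions from log-phase cultures are plated, compound in complete medium is added at 5-fold dilution steps (two replicates each), and cells grow for 72 h. Viability is then measured as Alamar blue fluorescence, giving EC50 by sigmoidal fitting.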

[2] = test system: Human cervical adenocarcinoma cells Hela; experiment: as above
How it was run: as §2

[3] = test system: Human Colon Cancer HCT-116; experiment: as above; conditions: Homo sapiens, HCT-116; HCT116 cells
How it was run: as §2

[4] = test system: Human Small Cell Lung Cancer NCI-H82; experiment: as above; conditions: Homo sapiens, NCI-H82; NCIH82 cells
How it was run: as §2

[5] = Homo sapiens, MV4-11, MV4;11 cells

T1 sequence (P53350 whole entry): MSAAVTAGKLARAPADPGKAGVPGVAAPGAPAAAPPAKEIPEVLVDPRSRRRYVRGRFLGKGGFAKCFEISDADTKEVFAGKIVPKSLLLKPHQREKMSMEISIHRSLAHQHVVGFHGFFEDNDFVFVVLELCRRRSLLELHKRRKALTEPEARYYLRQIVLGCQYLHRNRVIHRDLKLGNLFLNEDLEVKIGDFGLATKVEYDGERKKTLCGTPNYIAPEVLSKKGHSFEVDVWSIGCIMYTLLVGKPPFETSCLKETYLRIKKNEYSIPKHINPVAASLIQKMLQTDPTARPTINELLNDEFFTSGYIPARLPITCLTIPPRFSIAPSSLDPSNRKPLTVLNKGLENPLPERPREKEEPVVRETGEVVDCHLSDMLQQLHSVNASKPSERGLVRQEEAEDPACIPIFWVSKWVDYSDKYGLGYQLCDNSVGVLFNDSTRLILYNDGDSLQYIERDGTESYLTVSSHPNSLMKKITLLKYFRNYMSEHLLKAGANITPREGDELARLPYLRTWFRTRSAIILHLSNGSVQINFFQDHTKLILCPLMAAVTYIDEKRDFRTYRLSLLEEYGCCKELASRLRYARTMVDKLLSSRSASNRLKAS

EC50 [1, 5] [nM]	EC50 ([2]; Homo sapiens) [nM]	SMILES	other results
> 1000	> 1000	CC[C@@H]1c2c(C#N)ncn2-c2cnc(Nc3ccc(C(=O)NCCOCCOCCOCCOCCC(=O)Nc4cccc5c4CN(C4CCC(=O)NC4=O)C5=O)cc3OC)nc2N1C1CCCC1 (some centres unmarked) [UB-180551]	–
100 to 1000	> 1000	CC[C@@H]1c2c(C#N)ncn2-c2cnc(Nc3ccc(C(=O)NCCCC(=O)Nc4cccc5c4CN(C4CCC(=O)NC4=O)C5=O)cc3OC)nc2N1C1CCCC1 (some centres unmarked) [UB-180537]	–
10 to 100	–	CC[C@@H]1C(=O)N(C)c2cnc(Nc3ccc(C(=O)NCCCNCCCCC(=O)Nc4cccc5c4CN(C4CCC(=O)NC4=O)C5=O)cc3OC)nc2N1Cc1ccc(Br)cc1 (some centres unmarked) [UB-180638]	EC50 [3]: > 1000 nM; EC50 [4]: > 1000 nM
100 to 1000	> 1000	CC[C@@H]1c2c(C#N)ncn2-c2cnc(Nc3ccc(C(=O)NCCOCCOCCOCCOCC(=O)Nc4cccc5c4CN(C4CCC(=O)NC4=O)C5=O)cc3OC)nc2N1C1CCCC1 (some centres unmarked) [UB-180560]	–
> 1000	> 1000	CC[C@@H]1c2nncn2-c2cnc(Nc3ccc(C(=O)NCCOCCOCCOCCC(=O)Nc4cccc5c4CN(C4CCC(=O)NC4=O)C5=O)cc3OC)nc2N1C1CCCC1 (some centres unmarked) [UB-180549]	–
> 1000	> 1000	CC[C@@H]1c2nncn2-c2cnc(Nc3ccc(C(=O)NCCCC(=O)Nc4cccc5c4CN(C4CCC(=O)NC4=O)C5=O)cc3OC)nc2N1C1CCCC1 (some centres unmarked) [UB-180521]	–
> 1000	> 1000	CC[C@@H]1c2nncn2-c2cnc(Nc3ccc(C(=O)NCCCOCC(=O)Nc4cccc5c4CN(C4CCC(=O)NC4=O)C5=O)cc3OC)nc2N1C1CCCC1 (some centres unmarked) [UB-180510]	–
> 1000	> 1000	CC[C@@H]1c2nncn2-c2cnc(Nc3ccc(C(=O)NCCOCCOCCOCC(=O)N[C@H](C(=O)N4C[C@H](O)C[C@H]4C(=O)NCc4ccc(-c5scnc5C)cc4)C(C)(C)C)cc3OC)nc2N1C1CCCC1 [UB-180516]	–
10 to 100	> 1000	CC[C@@H]1c2nncn2-c2cnc(Nc3ccc(C(=O)NCCCC(=O)N[C@H](C(=O)N4C[C@H](O)C[C@H]4C(=O)NCc4ccc(-c5scnc5C)cc4)C(C)(C)C)cc3OC)nc2N1C1CCCC1 [UB-180539]	–
100 to 1000	> 1000	CC[C@@H]1c2c(C#N)ncn2-c2cnc(Nc3ccc(C(=O)NCCCOCC(=O)N[C@H](C(=O)N4C[C@H](O)C[C@H]4C(=O)NCc4ccc(-c5scnc5C)cc4)C(C)(C)C)cc3OC)nc2N1C1CCCC1 [UB-180542]	–
> 1000	> 1000	CC[C@@H]1c2c(C#N)ncn2-c2cnc(Nc3ccc(C(=O)NCCOCC(=O)Nc4cccc5c4CN(C4CCC(=O)NC4=O)C5=O)cc3OC)nc2N1C1CCCC1 (some centres unmarked) [UB-180518]	–
10 to 100	> 1000	CC[C@@H]1c2c(C#N)ncn2-c2cnc(Nc3ccc(C(=O)NCCOCCOCCOCCOCC(=O)N[C@H](C(=O)N4C[C@H](O)C[C@H]4C(=O)NCc4ccc(-c5scnc5C)cc4)C(C)(C)C)cc3OC)nc2N1C1CCCC1 [UB-180525]	DC50 (PLK1): > 1000 nM; DC50 (BRD4): > 1000 nM

The next lines start with the compound.

SMILES	EC50 [1, 5] [nM]	EC50 ([2]; Homo sapiens) [nM]	other results
CC[C@@H]1c2c(C#N)ncn2-c2cnc(Nc3ccc(C(=O)NCCOCCOCCOCCC(=O)N[C@H](C(=O)N4C[C@H](O)C[C@H]4C(=O)NCc4ccc(-c5scnc5C)cc4)C(C)(C)C)cc3OC)nc2N1C1CCCC1 [UB-180529]	10 to 100	> 1000	DC50 (PLK1): > 1000 nM; DC50 (BRD4): > 1000 nM
CC[C@@H]1C(=O)N(C)c2cnc(Nc3ccc(C(=O)NCCOCCNCCCCCC(=O)Nc4cccc5c4CN(C4CCC(=O)NC4=O)C5=O)cc3OC)nc2N1Cc1ccc(Br)cc1 (some centres unmarked) [UB-180643]	10 to 100	–	EC50 [3]: 100 to 1000 nM; EC50 [4]: > 1000 nM
CC[C@@H]1C(=O)N(C)c2cnc(Nc3ccc(C(=O)NCCCNCCCC(=O)Nc4cccc5c4CN(C4CCC(=O)NC4=O)C5=O)cc3OC)nc2N1Cc1ccc(Br)cc1 (some centres unmarked) [UB-180637]	10 to 100	–	EC50 [3]: > 1000 nM; EC50 [4]: > 1000 nM
CC[C@@H]1c2nncn2-c2cnc(Nc3ccc(C(=O)NCCOCCOCCOCCOCCC(=O)Nc4cccc5c4CN(C4CCC(=O)NC4=O)C5=O)cc3OC)nc2N1C1CCCC1 (some centres unmarked) [UB-180562]	> 1000	> 1000	–
CC[C@@H]1C(=O)N(C)c2cnc(Nc3ccc(C(=O)NCCOCCNCCCCC(=O)Nc4cccc5c4CN(C4CCC(=O)NC4=O)C5=O)cc3OC)nc2N1Cc1ccc(Br)cc1 (some centres unmarked) [UB-180645]	10 to 100	–	EC50 [3]: 100 to 1000 nM; EC50 [4]: > 1000 nM
CC[C@@H]1c2nncn2-c2cnc(Nc3ccc(C(=O)NCCOCCOCCOCCOCCC(=O)N[C@H](C(=O)N4C[C@H](O)C[C@H]4C(=O)NCc4ccc(-c5scnc5C)cc4)C(C)(C)C)cc3OC)nc2N1C1CCCC1 [UB-180553]	100 to 1000	> 1000	–
CC[C@@H]1c2nncn2-c2cnc(Nc3ccc(C(=O)NCCOCCOCCC(=O)N[C@H](C(=O)N4C[C@H](O)C[C@H]4C(=O)NCc4ccc(-c5scnc5C)cc4)C(C)(C)C)cc3OC)nc2N1C1CCCC1 [UB-180550]	> 1000	> 1000	–
CC[C@@H]1c2nncn2-c2cnc(Nc3ccc(C(=O)NCCOCCOCCOCCC(=O)N[C@H](C(=O)N4C[C@H](O)C[C@H]4C(=O)NCc4ccc(-c5scnc5C)cc4)C(C)(C)C)cc3OC)nc2N1C1CCCC1 [UB-180522]	100 to 1000	> 1000	–
CC[C@@H]1c2nncn2-c2cnc(Nc3ccc(C(=O)NCCOCCOCCOCCOCC(=O)N[C@H](C(=O)N4C[C@H](O)C[C@H]4C(=O)NCc4ccc(-c5scnc5C)cc4)C(C)(C)C)cc3OC)nc2N1C1CCCC1 [UB-180523]	10 to 100	> 1000	DC50 (PLK1): > 1000 nM; DC50 (BRD4): > 1000 nM
CC[C@@H]1c2nncn2-c2cnc(Nc3ccc(C(=O)NCCCCOCC(=O)Nc4cccc5c4CN(C4CCC(=O)NC4=O)C5=O)cc3OC)nc2N1C1CCCC1 (some centres unmarked) [UB-180524]	10 to 100	> 1000	–
CC[C@@H]1c2nncn2-c2cnc(Nc3ccc(C(=O)NCCOCC(=O)N[C@H](C(=O)N4C[C@H](O)C[C@H]4C(=O)NCc4ccc(-c5scnc5C)cc4)C(C)(C)C)cc3OC)nc2N1C1CCCC1 [UB-180540]	> 1000	> 1000	–
CC[C@@H]1c2c(C#N)ncn2-c2cnc(Nc3ccc(C(=O)NCCOCCOCCOCC(=O)Nc4cccc5c4CN(C4CCC(=O)NC4=O)C5=O)cc3OC)nc2N1C1CCCC1 (some centres unmarked) [UB-180545]	100 to 1000	> 1000	–
CC[C@@H]1c2nncn2-c2cnc(Nc3ccc(C(=O)NCCCOCC(=O)N[C@H](C(=O)N4C[C@H](O)C[C@H]4C(=O)NCc4ccc(-c5scnc5C)cc4)C(C)(C)C)cc3OC)nc2N1C1CCCC1 [UB-180541]	100 to 1000	> 1000	–
CC[C@@H]1c2nncn2-c2cnc(Nc3ccc(C(=O)NCCOCCOCCC(=O)Nc4cccc5c4CN(C4CCC(=O)NC4=O)C5=O)cc3OC)nc2N1C1CCCC1 (some centres unmarked) [UB-180547]	> 1000	> 1000	–
CC[C@@H]1c2nncn2-c2cnc(Nc3ccc(C(=O)NCCOCCOCCOCC(=O)Nc4cccc5c4CN(C4CCC(=O)NC4=O)C5=O)cc3OC)nc2N1C1CCCC1 (some centres unmarked) [UB-180546]	> 1000	> 1000	–
CC[C@@H]1c2nncn2-c2cnc(Nc3ccc(C(=O)NCCOCCOCC(=O)Nc4cccc5c4CN(C4CCC(=O)NC4=O)C5=O)cc3OC)nc2N1C1CCCC1 (some centres unmarked) [UB-180556]	> 1000	> 1000	–
CC[C@@H]1c2c(C#N)ncn2-c2cnc(Nc3ccc(C(=O)NCCCCOCC(=O)Nc4cccc5c4CN(C4CCC(=O)NC4=O)C5=O)cc3OC)nc2N1C1CCCC1 (some centres unmarked) [UB-180512]	100 to 1000	> 1000	–
CC[C@@H]1c2c(C#N)ncn2-c2cnc(Nc3ccc(C(=O)NCCOCCOCCC(=O)Nc4cccc5c4CN(C4CCC(=O)NC4=O)C5=O)cc3OC)nc2N1C1CCCC1 (some centres unmarked) [UB-180538]	> 1000	> 1000	–
CC[C@@H]1c2c(C#N)ncn2-c2cnc(Nc3ccc(C(=O)NCCOCCOCCOCCC(=O)Nc4cccc5c4CN(C4CCC(=O)NC4=O)C5=O)cc3OC)nc2N1C1CCCC1 (some centres unmarked) [UB-180548]	> 1000	> 1000	–
CC[C@@H]1c2c(C#N)ncn2-c2cnc(Nc3ccc(C(=O)NCCCC(=O)N[C@H](C(=O)N4C[C@H](O)C[C@H]4C(=O)NCc4ccc(-c5scnc5C)cc4)C(C)(C)C)cc3OC)nc2N1C1CCCC1 [UB-180543]	10 to 100	> 1000	–
CC[C@@H]1c2nncn2-c2cnc(Nc3ccc(C(=O)NCCOCCOCCOCCOCC(=O)Nc4cccc5c4CN(C4CCC(=O)NC4=O)C5=O)cc3OC)nc2N1C1CCCC1 (some centres unmarked) [UB-180561]	–	–	EC50 ([1]; MV4;11 cells): > 1000 nM; EC50 [2]: > 1000 nM
CC[C@@H]1c2c(C#N)ncn2-c2cnc(Nc3ccc(C(=O)NCCOCC(=O)N[C@H](C(=O)N4C[C@H](O)C[C@H]4C(=O)NCc4ccc(-c5scnc5C)cc4)C(C)(C)C)cc3OC)nc2N1C1CCCC1 [UB-180544]	10 to 100	> 1000	–
CC[C@@H]1c2c(C#N)ncn2-c2cnc(Nc3ccc(C(=O)NCCOCCOCC(=O)Nc4cccc5c4CN(C4CCC(=O)NC4=O)C5=O)cc3OC)nc2N1C1CCCC1 (some centres unmarked) [UB-180557]	100 to 1000	> 1000	–
